Results as given in patent US20210254272A1, “TEXTILES HAVING ANTIMICROBIAL PROPERTIES” (Livinguard AG, priority 2015, published 2021).

System: E. coli (ATCC 25922)
Assay: AATCC Test Method 100-2012 antibacterial activity of the treated textile, after 25 washes and 12 abrasion cycles, contact time 60 minutes
Type: cell-based
Settings: for Log reduction of antimicrobial performance: 1% o.w.f; for Log reduction of antimicrobial performance in 100 GSM cotton fabric / Log reduction of antimicrobial performance in 300 GSM cotton fabric: 2 min
Protocol: The antibacterial activity of the textile was tested in accordance with AATCC Test Method 100-2012. Prior to the test, the fabric was cut into coupons of 2×4 inches and washed separately 25 times, and exposed to 12 abrasion cycles, as per US EPA protocol 90072PA4 (described further below). The tests were made against E. coli (ATCC 25922). Contact time was 60 minutes, after inoculating with 10^8 CFU per coupon.

[1] = exhaust 80° C., 60 min, curing 180° C., dosage 0.1% o.w.f
[2] = exhaust 80° C., 60 min, curing 180° C., dosage 0.2% o.w.f
[3] = exhaust 80° C., 60 min, curing 180° C., dosage 0.5% o.w.f
[4] = exhaust 80° C., 60 min, curing 180° C., dosage 0.8% o.w.f
[5] = exhaust 80° C., 60 min, curing 180° C., dosage 1.0% o.w.f

With polyglucosamine [chitosan] as the substance, how does the “Log reduction of antimicrobial performance of each active ingredient” value (“Log reduction … of each active ingredient” below) (exhaust 60° C., solution dosage 1% o.w.f, process time 60 min) read?
Its value is 1.4 Log.

And the “Log reduction … of each active ingredient” value (exhaust 60° C., solution dosage 1% o.w.f, process time 90 min)?
The value was 1.5 Log.

What about the “Log reduction … of each active ingredient” value (exhaust 60° C., solution dosage 1% o.w.f, process time 120 min) of the same substance?
The value was 1.6 Log.

And the “Log reduction … of each active ingredient” value (exhaust 60° C., solution dosage 1% o.w.f, process time 180 min)?
The value was 1.7 Log.

What about the “Log reduction … of each active ingredient” value (exhaust 60° C., solution dosage 1% o.w.f, process time 240 min) of the same substance?
Its value is 1.65 Log.

And the “Log reduction of antimicrobial performance” value (exhaust 80° C., 60 min, curing 170° C., curing dwell time 0.5 min)?
Its value is 0.3 Log.

What about the “Log reduction of antimicrobial performance” value (exhaust 80° C., 60 min, curing 170° C., curing dwell time 1.0 min) of the same substance?
Its value is 0.7 Log.

What about the “Log reduction of antimicrobial performance” value (exhaust 80° C., 60 min, curing 170° C., curing dwell time 1.5 min) of the same substance?
Its value is 0.7 Log.

And the “Log reduction of antimicrobial performance” value (exhaust 80° C., 60 min, curing 170° C., curing dwell time 2.0 min)?
Its value is 1.4 Log.

And the “Log reduction of antimicrobial performance” value (exhaust 80° C., 60 min, curing 170° C., curing dwell time 2.5 min)?
Its value is 1.3 Log.

What about the “Log reduction of antimicrobial performance” value (exhaust 80° C., 60 min, curing 170° C., curing dwell time 3.0 min) of the same substance?
The value was 0.64 Log.

And the “Log reduction of antimicrobial performance” value (exhaust 80° C., 60 min, curing 180° C., curing dwell time 0.5 min)?
Its value is 1.4 Log.

What about the “Log reduction of antimicrobial performance” value (exhaust 80° C., 60 min, curing 180° C., curing dwell time 1.0 min) of the same substance?
The value was 1.5 Log.

And the “Log reduction of antimicrobial performance” value (exhaust 80° C., 60 min, curing 180° C., curing dwell time 1.5 min)?
Its value is 1.6 Log.

And the “Log reduction of antimicrobial performance” value (exhaust 80° C., 60 min, curing 180° C., curing dwell time 2.0 min)?
The value was 3.5 Log.

What about the “Log reduction of antimicrobial performance” value (exhaust 80° C., 60 min, curing 180° C., curing dwell time 2.5 min) of the same substance?
Its value is 3.5 Log.

What about the “Log reduction of antimicrobial performance” value (exhaust 80° C., 60 min, curing 180° C., curing dwell time 3.0 min) of the same substance?
Its value is 3.4 Log.

What about the “Log reduction of antimicrobial performance” value (exhaust 80° C., 60 min, curing 190° C., curing dwell time 0.5 min) of the same substance?
Its value is 0.3 Log.

What about the “Log reduction of antimicrobial performance” value (exhaust 80° C., 60 min, curing 190° C., curing dwell time 1.0 min) of the same substance?
The value was 1.2 Log.

And the “Log reduction of antimicrobial performance” value (exhaust 80° C., 60 min, curing 190° C., curing dwell time 1.5 min)?
Its value is 1.4 Log.

What about the “Log reduction of antimicrobial performance” value (exhaust 80° C., 60 min, curing 190° C., curing dwell time 2.0 min) of the same substance?
The value was 2.66 Log.

And the “Log reduction of antimicrobial performance” value (exhaust 80° C., 60 min, curing 190° C., curing dwell time 2.5 min)?
Its value is 2.31 Log.

And the “Log reduction of antimicrobial performance” value (exhaust 80° C., 60 min, curing 190° C., curing dwell time 3.0 min)?
Its value is 1.3 Log.

What about the “Log reduction of antimicrobial performance” value (exhaust 80° C., 60 min, curing temperature 100 ° C.) of the same substance?
The value was 0.16 Log.

And the “Log reduction of antimicrobial performance” value (exhaust 80° C., 60 min, curing temperature 120 ° C.)?
The value was 0.23 Log.

And the “Log reduction of antimicrobial performance” value (exhaust 80° C., 60 min, curing temperature 140 ° C.)?
The value was 0.88 Log.

What about the “Log reduction of antimicrobial performance” value (exhaust 80° C., 60 min, curing temperature 160 ° C.) of the same substance?
Its value is 1.34 Log.

What about the “Log reduction of antimicrobial performance” value (exhaust 80° C., 60 min, curing temperature 165 ° C.) of the same substance?
Its value is 1.38 Log.

And the “Log reduction of antimicrobial performance” value (exhaust 80° C., 60 min, curing temperature 170 ° C.)?
The value was 1.48 Log.

And the “Log reduction of antimicrobial performance” value (exhaust 80° C., 60 min, curing temperature 175 ° C.)?
The value was 2.41 Log.

What about the “Log reduction of antimicrobial performance” value (exhaust 80° C., 60 min, curing temperature 180 ° C.) of the same substance?
The value was 2.67 Log.

What about the “Log reduction of antimicrobial performance” value (exhaust 80° C., 60 min, curing temperature 185 ° C.) of the same substance?
Its value is 2.68 Log.

What about the “Log reduction of antimicrobial performance” value (exhaust 80° C., 60 min, curing temperature 190 ° C.) of the same substance?
Its value is 2.69 Log.

And the “Log reduction of antimicrobial performance” value (exhaust 80° C., 60 min, curing temperature 195 ° C.)?
The value was 2.71 Log.

And the “Log reduction of antimicrobial performance in 100 GSM cotton fabric” value (shortened to “Log reduction … in 100 GSM cotton fabric”) [1]?
Its value is 0.63 Log.

And the “Log reduction of antimicrobial performance in 300 GSM cotton fabric” value (“Log reduction … in 300 GSM cotton fabric” below) [1]?
Its value is 0.65 Log.

And the “Log reduction … in 100 GSM cotton fabric” value [2]?
The value was 1.37 Log.

And the “Log reduction … in 300 GSM cotton fabric” value [2]?
Its value is 1.38 Log.

What about the “Log reduction … in 100 GSM cotton fabric” value [3] of the same substance?
The value was 1.91 Log.

And the “Log reduction … in 300 GSM cotton fabric” value [3]?
The value was 1.91 Log.

And the “Log reduction … in 100 GSM cotton fabric” value [4]?
The value was 2.21 Log.

What about the “Log reduction … in 300 GSM cotton fabric” value [4] of the same substance?
Its value is 2.21 Log.

And the “Log reduction … in 100 GSM cotton fabric” value [5]?
Its value is 2.71 Log.

And the “Log reduction … in 300 GSM cotton fabric” value [5]?
The value was 2.72 Log.

And the “Log reduction … of each active ingredient” value (exhaust 80° C., 60 min, dosage 1% o.w.f (test up to 5% o.w.f))?
The value was 2.45 Log.

What about the “Log reduction … of each active ingredient” value (exhaust 80° C., 60 min, dosage 2% o.w.f) of the same substance?
The value was 2.46 Log.

And the “Log reduction … of each active ingredient” value (exhaust 80° C., 60 min, dosage 3% o.w.f)?
Its value is 2.47 Log.

What about the “Log reduction … of each active ingredient” value (exhaust 80° C., 60 min, dosage 4% o.w.f) of the same substance?
Its value is 2.47 Log.

What about the “Log reduction … of each active ingredient” value (exhaust 80° C., 60 min, dosage 5% o.w.f) of the same substance?
Its value is 2.47 Log.

What about the “Log reduction … of each active ingredient” value (exhaust 80 ° C., solution dosage 1% o.w.f, process time 10 min) of the same substance?
The value was 0.67 Log.

What about the “Log reduction … of each active ingredient” value (exhaust 80 ° C., solution dosage 1% o.w.f, process time 20 min) of the same substance?
The value was 1.13 Log.

What about the “Log reduction … of each active ingredient” value (exhaust 80 ° C., solution dosage 1% o.w.f, process time 30 min) of the same substance?
Its value is 1.43 Log.

And the “Log reduction … of each active ingredient” value (exhaust 80 ° C., solution dosage 1% o.w.f, process time 40 min)?
The value was 1.73 Log.

And the “Log reduction … of each active ingredient” value (exhaust 80 ° C., solution dosage 1% o.w.f, process time 50 min)?
The value was 2.45 Log.

What about the “Log reduction … of each active ingredient” value (exhaust 80 ° C., solution dosage 1% o.w.f, process time 60 min) of the same substance?
The value was 2.67 Log.

What about the “Log reduction … of each active ingredient” value (exhaust 80 ° C., solution dosage 1% o.w.f, process time 70 min) of the same substance?
The value was 2.68 Log.

And the “Log reduction … of each active ingredient” value (exhaust 80 ° C., solution dosage 1% o.w.f, process time 80 min)?
Its value is 2.72 Log.
